# Test results: ChEMBL document CHEMBL5696442, “Discovery of type II inhibitors of TGFβ-activated kinase 1 (TAK1) and mitogen-activated protein kinase kinase kinase kinase 2 (MAP4K2)” (J Med Chem, 2015)
# Activity calls are given as the source filed them. No cut-off for these calls is given here.
# Tests used:
# [1] = molecular target: T1, Dual specificity mitogen-activated protein kinase kinase 6 (Homo sapiens) (UniProt P52564); assay: Inhibition of MAP2K6 K1 labeling site in human Huh-7 cells at 10 uM by KiNativ Profiling analysis relative to control; type: cell-based
# T1 sequence (whole entry): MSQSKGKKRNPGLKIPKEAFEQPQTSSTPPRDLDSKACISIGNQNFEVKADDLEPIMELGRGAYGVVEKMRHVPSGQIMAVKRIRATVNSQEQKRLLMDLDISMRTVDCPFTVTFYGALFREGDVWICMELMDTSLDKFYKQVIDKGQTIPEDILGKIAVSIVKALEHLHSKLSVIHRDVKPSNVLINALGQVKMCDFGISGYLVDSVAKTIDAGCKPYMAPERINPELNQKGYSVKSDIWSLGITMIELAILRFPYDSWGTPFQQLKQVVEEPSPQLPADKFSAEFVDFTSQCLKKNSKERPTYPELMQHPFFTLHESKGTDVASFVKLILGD
# [2] = molecular target: T2, Mitogen-activated protein kinase kinase kinase 6 (Homo sapiens) (UniProt O95382); assay: Inhibition of MAP3K6 Lys1 labeling site harbouring IAIKEIPERDSR in human A-375 cells at 0.05 uM by KiNativ Profiling analysis relative to control; type: cell-based
# T2 sequence (whole entry): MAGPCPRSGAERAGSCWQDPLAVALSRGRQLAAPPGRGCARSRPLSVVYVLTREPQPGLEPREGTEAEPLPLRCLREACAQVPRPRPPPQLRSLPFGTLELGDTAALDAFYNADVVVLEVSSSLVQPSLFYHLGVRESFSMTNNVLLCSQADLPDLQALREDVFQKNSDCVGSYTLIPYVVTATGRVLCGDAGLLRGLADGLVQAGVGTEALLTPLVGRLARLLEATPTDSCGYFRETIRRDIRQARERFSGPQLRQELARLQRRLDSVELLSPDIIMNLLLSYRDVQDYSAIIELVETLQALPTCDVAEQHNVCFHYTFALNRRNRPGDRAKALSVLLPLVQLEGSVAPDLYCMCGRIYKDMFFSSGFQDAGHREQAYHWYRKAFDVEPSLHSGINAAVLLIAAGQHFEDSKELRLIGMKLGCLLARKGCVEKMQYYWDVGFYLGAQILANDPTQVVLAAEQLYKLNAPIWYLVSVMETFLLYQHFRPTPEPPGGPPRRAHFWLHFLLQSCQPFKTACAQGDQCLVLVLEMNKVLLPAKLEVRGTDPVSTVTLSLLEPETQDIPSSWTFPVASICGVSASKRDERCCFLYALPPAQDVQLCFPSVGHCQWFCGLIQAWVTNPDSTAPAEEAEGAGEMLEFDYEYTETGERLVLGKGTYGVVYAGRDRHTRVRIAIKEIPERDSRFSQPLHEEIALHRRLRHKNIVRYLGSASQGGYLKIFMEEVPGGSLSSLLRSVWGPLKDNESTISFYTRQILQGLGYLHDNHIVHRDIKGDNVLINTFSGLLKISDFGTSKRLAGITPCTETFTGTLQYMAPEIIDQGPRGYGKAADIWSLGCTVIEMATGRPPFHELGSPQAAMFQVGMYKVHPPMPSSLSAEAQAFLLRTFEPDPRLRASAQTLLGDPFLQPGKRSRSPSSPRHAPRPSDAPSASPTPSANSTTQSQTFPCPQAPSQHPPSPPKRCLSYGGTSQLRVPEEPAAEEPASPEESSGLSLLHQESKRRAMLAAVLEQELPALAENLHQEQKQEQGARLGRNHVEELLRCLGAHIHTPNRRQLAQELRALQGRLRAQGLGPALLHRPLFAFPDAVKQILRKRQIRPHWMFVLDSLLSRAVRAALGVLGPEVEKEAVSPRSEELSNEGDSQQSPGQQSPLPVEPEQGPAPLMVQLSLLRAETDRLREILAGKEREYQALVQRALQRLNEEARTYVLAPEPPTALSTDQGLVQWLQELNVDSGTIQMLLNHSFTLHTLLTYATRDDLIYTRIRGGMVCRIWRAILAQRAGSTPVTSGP
# [3] = molecular target: T3, Phosphatidylinositol 5-phosphate 4-kinase type-2 gamma (Homo sapiens) (UniProt Q8TBX8); assay: Inhibition of PIP5K2C C2 labeling site in human Huh-7 cells at 1 uM by KiNativ Profiling analysis relative to control; type: cell-based
# T3 sequence (whole entry): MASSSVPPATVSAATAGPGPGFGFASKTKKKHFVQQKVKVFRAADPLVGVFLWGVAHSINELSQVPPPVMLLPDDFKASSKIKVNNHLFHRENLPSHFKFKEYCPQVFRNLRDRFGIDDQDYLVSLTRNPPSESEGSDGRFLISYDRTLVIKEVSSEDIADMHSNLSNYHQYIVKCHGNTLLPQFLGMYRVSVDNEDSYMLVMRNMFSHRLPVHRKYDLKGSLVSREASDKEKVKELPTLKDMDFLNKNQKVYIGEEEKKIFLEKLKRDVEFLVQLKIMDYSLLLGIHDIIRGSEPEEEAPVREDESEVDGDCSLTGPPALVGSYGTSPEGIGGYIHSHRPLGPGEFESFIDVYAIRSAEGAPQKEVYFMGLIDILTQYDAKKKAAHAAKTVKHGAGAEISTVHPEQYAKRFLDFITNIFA
# [4] = molecular target: Serine/threonine-protein kinase 17A (Homo sapiens) (UniProt Q9UEE5); assay: Inhibition of DRAK1 (unknown origin) at 10 uM by Ambit Kinomescan binding assay
# [5] = molecular target: Focal adhesion kinase 1 (Homo sapiens) (UniProt Q05397); assay: Inhibition of FAK Lys1 labeling site in human A-375 cells at 5 uM by KiNativ Profiling analysis relative to control; type: cell-based
# [6] = test system: Epidermal growth factor receptor (Homo sapiens), P00533 [UNDEFINED MUTATION]; assay: Inhibition of EGFR E746-A750del mutant (unknown origin) at 1 uM by Ambit Kinomescan binding assay relative to control
# [7] = molecular target: Cyclin-dependent kinase 18 (Homo sapiens) (UniProt Q07002); assay: Inhibition of PCTAIRE3 Lys1 labeling site harbouring SKLTENLVALKEIRLEHEEGAPCTAIR in human A-375 cells at 0.05 uM by KiNativ Profiling analysis relative to control; type: cell-based
# [8] = molecular target: DNA-PK/Ku70/Ku85 (Homo sapiens) (UniProt P78527+P12956+P13010); assay: Inhibition of DNAPK ATP labeling site harbouring GHDEREHPFLVKGGEDLR in human Huh-7 cell lysate at 1 uM by KiNativ Profiling analysis relative to control; type: subcellular
# [9] = molecular target: Calcium/calmodulin-dependent protein kinase type II subunit delta (Homo sapiens) (UniProt Q13557); assay: Inhibition of CaMK2d Lys1 labeling site harbouring IPTGQEYAAKIINTKK in human Huh-7 cell lysate at 1 uM by KiNativ Profiling analysis relative to control; type: subcellular
# [10] = molecular target: Serine/threonine-protein kinase MARK2 (Homo sapiens) (UniProt Q7KZI7); assay: Inhibition of MARK2 Lys2 labeling site harbouring EVAIKIIDKTQLNPTSLQK in human Huh-7 cells at 1 uM by KiNativ Profiling analysis relative to control; type: cell-based
# Sequence of Serine/threonine-protein kinase MARK2 (Homo sapiens) (Q7KZI7 whole entry): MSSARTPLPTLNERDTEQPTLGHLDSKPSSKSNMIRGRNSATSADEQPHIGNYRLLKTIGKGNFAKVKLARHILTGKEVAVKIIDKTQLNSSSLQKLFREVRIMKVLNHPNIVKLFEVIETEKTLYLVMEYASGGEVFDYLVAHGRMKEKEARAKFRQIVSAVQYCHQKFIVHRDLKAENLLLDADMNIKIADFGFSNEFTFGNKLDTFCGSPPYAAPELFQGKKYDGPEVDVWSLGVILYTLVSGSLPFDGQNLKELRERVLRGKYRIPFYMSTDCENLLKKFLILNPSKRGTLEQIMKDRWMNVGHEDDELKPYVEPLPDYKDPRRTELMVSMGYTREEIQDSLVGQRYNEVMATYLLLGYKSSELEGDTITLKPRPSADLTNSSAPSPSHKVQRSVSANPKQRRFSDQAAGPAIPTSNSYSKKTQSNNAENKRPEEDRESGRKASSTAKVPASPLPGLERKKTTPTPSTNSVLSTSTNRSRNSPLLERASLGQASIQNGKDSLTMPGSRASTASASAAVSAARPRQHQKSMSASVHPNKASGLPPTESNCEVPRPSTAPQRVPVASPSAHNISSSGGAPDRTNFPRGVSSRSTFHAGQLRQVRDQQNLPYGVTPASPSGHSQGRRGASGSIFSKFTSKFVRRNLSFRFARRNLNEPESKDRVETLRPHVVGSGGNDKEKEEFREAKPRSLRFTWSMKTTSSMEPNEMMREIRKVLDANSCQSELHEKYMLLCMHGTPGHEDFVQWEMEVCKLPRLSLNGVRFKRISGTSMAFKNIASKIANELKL
# Sequence of Calcium/calmodulin-dependent protein kinase type II subunit delta (Homo sapiens) (Q13557 whole entry): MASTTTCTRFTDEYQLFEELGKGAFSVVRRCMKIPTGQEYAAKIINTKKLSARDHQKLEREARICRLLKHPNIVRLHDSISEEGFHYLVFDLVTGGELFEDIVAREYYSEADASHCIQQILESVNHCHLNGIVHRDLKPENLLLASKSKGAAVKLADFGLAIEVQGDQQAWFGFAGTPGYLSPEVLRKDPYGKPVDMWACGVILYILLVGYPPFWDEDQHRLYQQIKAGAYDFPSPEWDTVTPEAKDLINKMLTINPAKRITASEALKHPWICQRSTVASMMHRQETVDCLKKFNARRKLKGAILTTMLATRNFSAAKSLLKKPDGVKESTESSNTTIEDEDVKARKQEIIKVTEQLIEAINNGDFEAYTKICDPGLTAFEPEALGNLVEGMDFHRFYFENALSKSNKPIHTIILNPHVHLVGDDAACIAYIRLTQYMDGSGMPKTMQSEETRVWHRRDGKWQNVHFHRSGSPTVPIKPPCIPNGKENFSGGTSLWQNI
# Sequence of Focal adhesion kinase 1 (Homo sapiens) (Q05397 2-1052 limits assumed): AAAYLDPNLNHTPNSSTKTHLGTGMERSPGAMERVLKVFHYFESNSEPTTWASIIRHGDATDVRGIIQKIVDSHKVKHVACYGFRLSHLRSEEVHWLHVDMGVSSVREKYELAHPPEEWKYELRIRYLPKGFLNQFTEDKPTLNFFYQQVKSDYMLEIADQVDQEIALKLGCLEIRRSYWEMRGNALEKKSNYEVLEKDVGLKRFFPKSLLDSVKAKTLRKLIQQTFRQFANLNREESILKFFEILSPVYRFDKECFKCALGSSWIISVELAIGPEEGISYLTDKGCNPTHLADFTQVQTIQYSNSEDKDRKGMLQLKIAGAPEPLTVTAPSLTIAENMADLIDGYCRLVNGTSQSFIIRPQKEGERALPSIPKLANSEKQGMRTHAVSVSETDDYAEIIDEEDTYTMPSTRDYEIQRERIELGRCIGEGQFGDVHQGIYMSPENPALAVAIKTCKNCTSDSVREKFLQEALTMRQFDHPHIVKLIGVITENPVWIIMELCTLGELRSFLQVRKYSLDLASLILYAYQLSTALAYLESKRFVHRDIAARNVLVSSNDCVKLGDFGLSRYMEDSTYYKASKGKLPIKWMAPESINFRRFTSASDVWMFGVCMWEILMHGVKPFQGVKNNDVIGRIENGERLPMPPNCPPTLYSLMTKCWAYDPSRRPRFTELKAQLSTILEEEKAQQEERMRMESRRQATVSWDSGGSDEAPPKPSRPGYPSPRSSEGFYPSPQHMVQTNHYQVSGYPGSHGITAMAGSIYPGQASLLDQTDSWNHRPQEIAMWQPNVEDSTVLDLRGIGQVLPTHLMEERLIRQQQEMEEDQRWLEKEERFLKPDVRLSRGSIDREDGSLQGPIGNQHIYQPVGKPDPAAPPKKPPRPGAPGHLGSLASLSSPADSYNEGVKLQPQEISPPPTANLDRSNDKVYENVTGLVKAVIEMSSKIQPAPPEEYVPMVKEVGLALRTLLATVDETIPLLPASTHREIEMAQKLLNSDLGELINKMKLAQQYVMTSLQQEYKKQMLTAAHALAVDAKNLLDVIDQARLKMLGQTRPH
# Sequence of Cyclin-dependent kinase 18 (Homo sapiens) (Q07002 whole entry): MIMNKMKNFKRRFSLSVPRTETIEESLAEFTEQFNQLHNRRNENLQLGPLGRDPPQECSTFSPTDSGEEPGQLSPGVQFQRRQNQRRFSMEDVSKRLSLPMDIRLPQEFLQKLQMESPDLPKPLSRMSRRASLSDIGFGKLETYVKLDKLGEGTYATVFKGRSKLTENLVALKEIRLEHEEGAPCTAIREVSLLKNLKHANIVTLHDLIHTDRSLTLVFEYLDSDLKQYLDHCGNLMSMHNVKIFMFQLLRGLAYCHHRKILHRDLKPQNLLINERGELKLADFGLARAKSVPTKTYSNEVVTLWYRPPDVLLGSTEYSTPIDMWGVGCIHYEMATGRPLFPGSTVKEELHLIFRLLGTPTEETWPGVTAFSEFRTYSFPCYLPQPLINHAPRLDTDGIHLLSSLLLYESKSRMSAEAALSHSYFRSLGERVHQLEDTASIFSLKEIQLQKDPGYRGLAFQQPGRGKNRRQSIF
# Sequence of Serine/threonine-protein kinase 17A (Homo sapiens) (Q9UEE5 whole entry): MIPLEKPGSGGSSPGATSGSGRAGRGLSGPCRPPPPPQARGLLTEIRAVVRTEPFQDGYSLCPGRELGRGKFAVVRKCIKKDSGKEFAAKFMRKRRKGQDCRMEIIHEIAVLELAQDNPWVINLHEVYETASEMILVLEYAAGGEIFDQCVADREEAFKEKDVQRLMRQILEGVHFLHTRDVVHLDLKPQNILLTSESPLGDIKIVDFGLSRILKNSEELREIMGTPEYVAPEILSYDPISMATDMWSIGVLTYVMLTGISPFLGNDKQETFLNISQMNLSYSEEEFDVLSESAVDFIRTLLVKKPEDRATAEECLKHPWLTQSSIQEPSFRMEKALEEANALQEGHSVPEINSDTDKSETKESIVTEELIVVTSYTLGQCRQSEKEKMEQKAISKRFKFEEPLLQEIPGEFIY
# Sequence of Epidermal growth factor receptor (Homo sapiens), P00533 [UNDEFINED MUTATION] (P00533 whole entry, looked up, stated change not applied): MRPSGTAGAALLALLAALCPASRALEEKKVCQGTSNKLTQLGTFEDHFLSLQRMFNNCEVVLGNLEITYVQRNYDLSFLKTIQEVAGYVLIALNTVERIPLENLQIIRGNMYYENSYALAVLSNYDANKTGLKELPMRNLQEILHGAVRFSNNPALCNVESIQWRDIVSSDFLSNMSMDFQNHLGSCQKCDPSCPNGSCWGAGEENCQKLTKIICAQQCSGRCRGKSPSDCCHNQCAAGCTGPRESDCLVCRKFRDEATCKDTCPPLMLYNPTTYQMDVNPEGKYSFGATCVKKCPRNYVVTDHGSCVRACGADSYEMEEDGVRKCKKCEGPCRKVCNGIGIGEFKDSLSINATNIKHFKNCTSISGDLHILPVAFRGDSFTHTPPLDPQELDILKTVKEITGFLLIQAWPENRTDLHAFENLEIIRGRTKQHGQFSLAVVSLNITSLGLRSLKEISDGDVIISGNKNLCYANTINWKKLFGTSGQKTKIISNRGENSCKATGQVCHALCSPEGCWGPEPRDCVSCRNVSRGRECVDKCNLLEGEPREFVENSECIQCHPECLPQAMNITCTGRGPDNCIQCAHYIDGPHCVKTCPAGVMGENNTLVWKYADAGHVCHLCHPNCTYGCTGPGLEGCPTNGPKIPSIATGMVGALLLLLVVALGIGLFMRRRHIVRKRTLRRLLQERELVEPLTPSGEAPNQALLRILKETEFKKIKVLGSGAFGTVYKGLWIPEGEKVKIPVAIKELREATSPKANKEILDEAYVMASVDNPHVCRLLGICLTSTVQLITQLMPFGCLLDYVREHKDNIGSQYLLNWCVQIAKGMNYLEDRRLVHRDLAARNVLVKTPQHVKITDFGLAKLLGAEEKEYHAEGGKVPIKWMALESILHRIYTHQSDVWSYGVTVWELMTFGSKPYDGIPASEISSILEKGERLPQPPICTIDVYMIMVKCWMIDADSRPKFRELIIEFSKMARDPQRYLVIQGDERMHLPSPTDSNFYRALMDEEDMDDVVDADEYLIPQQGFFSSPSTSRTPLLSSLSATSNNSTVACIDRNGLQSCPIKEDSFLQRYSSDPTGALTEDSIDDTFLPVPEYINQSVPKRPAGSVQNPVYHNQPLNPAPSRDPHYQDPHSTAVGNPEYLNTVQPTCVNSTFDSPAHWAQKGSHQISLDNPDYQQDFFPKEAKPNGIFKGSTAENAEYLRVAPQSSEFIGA
structure (smiles),measurement,setting,value
CCN1CCN(Cc2ccc(NC(=O)c3ccc(C)c(Oc4ccnc5[nH]ccc45)c3)cc2C(F)(F)F)CC1,inhibition,[1],5.5%
same,inhibition,[2],-3.3%
same,inhibition,[3],1.3%
same,inhibition,[4],inactive
same,inhibition,[5],13.8%
CCN1CCN(Cc2ccc(NC(=O)c3ccc(C)c(/C=C/c4cnc5[nH]ccc5c4OC)c3)cc2C(F)(F)F)CC1,inhibition,[6],0.7%
same,inhibition,[7],2.7%
CNc1cc(Oc2cc(C(=O)Nc3cc(N4CCN(C)CC4)cc(C(F)(F)F)c3)ccc2C)ncn1,inhibition,[8],7.9%
same,inhibition,[9],15.4%
same,inhibition,[10],11.3%
